Results: patent EP4644396A1 (Visionpharma (Nantong) Co., Ltd, priority 2022, dated 2024)
Like-named read-outs stand apart in the source and are kept apart here.

What was measured:
[1] = biological target: T1, human TLR7 (Homo sapiens, UniProt Q9NYK1); experiment: HEK-Blue hTLR7 SEAP reporter gene inhibition assay; assay type: cell-based
T1 sequence (Q9NYK1 27-1049): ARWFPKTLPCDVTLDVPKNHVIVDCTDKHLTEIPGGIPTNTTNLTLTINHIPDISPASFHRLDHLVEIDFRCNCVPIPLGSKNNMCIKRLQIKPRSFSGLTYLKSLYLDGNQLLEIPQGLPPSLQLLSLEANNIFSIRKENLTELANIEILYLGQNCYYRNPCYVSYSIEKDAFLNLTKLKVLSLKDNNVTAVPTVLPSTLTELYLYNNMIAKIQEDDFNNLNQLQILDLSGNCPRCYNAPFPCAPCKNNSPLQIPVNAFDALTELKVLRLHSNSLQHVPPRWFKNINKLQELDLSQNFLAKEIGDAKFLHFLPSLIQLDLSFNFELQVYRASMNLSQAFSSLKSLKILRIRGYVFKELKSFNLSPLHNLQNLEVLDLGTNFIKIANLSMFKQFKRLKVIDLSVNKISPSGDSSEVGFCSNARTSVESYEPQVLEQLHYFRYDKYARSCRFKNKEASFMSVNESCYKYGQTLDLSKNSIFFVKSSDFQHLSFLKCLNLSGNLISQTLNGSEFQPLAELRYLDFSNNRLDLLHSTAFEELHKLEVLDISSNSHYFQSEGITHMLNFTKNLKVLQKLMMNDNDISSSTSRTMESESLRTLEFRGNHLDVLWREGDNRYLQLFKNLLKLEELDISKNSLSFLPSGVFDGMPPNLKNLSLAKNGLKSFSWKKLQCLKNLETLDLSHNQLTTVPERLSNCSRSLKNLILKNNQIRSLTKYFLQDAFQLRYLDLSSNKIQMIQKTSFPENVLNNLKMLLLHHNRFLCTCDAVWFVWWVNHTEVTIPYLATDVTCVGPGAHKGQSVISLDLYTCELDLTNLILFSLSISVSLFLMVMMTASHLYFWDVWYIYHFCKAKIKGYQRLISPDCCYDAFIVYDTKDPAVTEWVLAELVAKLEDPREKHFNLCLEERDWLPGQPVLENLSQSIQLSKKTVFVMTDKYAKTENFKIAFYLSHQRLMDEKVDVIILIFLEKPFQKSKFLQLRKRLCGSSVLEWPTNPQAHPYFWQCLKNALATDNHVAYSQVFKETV
In short: (§1)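 Cells seeded (TLR7 line 80,000, TLR8 line 60,000 per well), compound added at 0.001–36 µM final for 15 min, then agonist at 10 µM final (Gardiquimod for TLR7) for 20 h. SEAP measured with Quanti-Blue; IC50 fitted.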

[2] = biological target: T2, human TLR8 (Homo sapiens, UniProt Q9NR97); experiment: HEK-Blue hTLR8 SEAP reporter gene inhibition assay; assay type: cell-based
T2 construct: expressed in transfected cells
T2 sequence (Q9NR97 27-1041): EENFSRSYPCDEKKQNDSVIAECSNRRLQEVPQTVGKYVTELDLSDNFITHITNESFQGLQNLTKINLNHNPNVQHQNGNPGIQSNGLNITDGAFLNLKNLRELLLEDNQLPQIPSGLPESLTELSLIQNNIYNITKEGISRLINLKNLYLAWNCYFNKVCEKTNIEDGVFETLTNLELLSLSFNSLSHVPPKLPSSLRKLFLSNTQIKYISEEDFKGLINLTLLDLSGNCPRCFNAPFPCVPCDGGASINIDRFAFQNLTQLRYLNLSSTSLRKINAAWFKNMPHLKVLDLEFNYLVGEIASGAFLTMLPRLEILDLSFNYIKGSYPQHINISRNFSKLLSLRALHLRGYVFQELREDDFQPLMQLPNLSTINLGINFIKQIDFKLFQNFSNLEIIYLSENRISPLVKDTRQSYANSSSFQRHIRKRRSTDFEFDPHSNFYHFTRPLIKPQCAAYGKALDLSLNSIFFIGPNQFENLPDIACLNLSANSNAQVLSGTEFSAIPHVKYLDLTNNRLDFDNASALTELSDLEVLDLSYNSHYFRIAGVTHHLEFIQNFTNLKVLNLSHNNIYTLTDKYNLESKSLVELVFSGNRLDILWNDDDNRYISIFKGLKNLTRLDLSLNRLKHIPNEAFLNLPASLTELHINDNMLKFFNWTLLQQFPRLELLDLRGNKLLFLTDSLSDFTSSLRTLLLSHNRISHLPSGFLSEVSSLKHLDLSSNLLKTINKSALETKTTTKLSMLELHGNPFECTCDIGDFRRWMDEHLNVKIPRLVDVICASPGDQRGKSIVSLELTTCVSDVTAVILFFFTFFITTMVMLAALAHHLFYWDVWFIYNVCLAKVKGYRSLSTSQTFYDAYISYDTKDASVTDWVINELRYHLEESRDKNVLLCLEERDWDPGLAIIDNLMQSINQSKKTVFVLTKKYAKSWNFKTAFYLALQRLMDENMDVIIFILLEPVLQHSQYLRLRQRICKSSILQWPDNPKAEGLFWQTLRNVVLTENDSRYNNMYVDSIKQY
In short: as §1

[3] = hTLR7 HEK-Blue cells, TLR7 ligand Gardiquimod 10 µM, 20 hours, SEAP by Quanti-blue, class symbols, read-out: HEK-Blue hTLR7 IC50
[4] = hTLR8 HEK-Blue cells, TLR8 ligand 10 µM, 20 hours, SEAP by Quanti-blue, class symbols, read-out: HEK-Blue hTLR8 IC50

Row | IC50 [1, 3] [µM] | IC50 [2, 4] [µM] | Structure (SMILES) | further results
1 | – | – | C[C@@H]1CN(c2ccc(C#N)n3ncc(F)c23)Cc2c3c(nn21)CN(C1CC(O)C1)[C@@H](C)C3 (stereo partly drawn) [Example I-111, 3-Fluoro-4-((4R, 9S)-8-(3-hydroxycyclobutyl)-4,9-dimethyl-3,4,7,8,9, 10-hexahydropyridine [3 ', 4 ': 3, 4]pyrazole [1,5-a]pyrazine-2 (1 H) -yl) pyrazole [1,5-a] pyridine-7-nitrile] | IC50 ([1]; HEK-Blue hTLR7 IC50 (µM)): < 0.05 µM; IC50 ([2]; HEK-Blue hTLR8 IC50 (µM)): < 0.1 µM
2 | < 0.05 | < 0.1 | C[C@@H]1CN(c2ccc(C#N)n3ncc(F)c23)Cc2c3c(nn21)CN(CC(C)(C)O)[C@@H](C)C3 [Example I-117, 3-Fluoro-4-((4R,9S)-8-(2-hydroxy-2-methylpropyl)-4,9-dimethyl-3,4,7,8,9,10-hexahydropyrido[3',4':3,4]pyrazolo[1,5-a]pyrazin-2(1H)-yl)pyrazolo[1,5-a]pyridine-7-carbonitrile] | –
3 | – | – | COCCN1Cc2nn3c(c2C[C@@H]1C)CN(c1ccc(C#N)n2ncc(F)c12)C[C@H]3C [Example I-125, 3-Fluoro-4-((4R,9S)-8-(2-methoxyethyl)-4,9-dimethyl-3,4,7,8,9,10-hexahydropyridine [3 ', 4 ': 3, 4]pyrazole [1,5-a]pyrazine-2(1H)-yl) pyrazole[1,5-a] pyridine-7-caronitrile] | IC50 ([1]; read-out: HEK-Blue hTLR7 IC50): < 0.05 µM; IC50 ([2]; read-out: HEK-Blue hTLR8 IC50): < 0.1 µM
4 | – | – | C[C@@H]1CN(c2ccc(C#N)n3ncc(F)c23)Cc2c3c(nn21)CN(CCC#N)[C@@H](C)C3 [Example I-129, 4-((4R,9S)-8-(2-cyanoethyl)-4,9-dimethyl-3,4,7,8,9,10-hexahydropyridine[3',4':3,4]pyrazole[1,5-a]pyrazine-2 (1 H)-yl)-3-fluoropyrazole [1,5-a] pyridine-7-nitrile] | IC50 ([1]; HEK-Blue hTLR7 IC50 (µM)): < 0.05 µM; IC50 ([2]; HEK-Blue hTLR8 IC50 (µM)): < 0.1 µM
5 | – | – | C[C@@H]1CN(c2ccc(C#N)n3ncc(F)c23)Cc2c3c(nn21)CN(Cc1ccn[nH]1)[C@@H](C)C3 [Example I-134, 4-((4R,9S)-8-((1H-pyrazol-5-yl)methyl)-4,9-dimethyl-3,4,7,8,9,10-hexahydropyrido[3',4':3,4]pyrazolo[1,5-a]pyrazin-2(1H)-yl)-3-fluoropyrazolo[1,5-a]pyridine-7-carbonitrile] | IC50 ([1]; read-out: HEK-Blue hTLR7 IC50): < 0.05 µM; IC50 ([2]; read-out: HEK-Blue hTLR8 IC50): < 0.1 µM
6 | – | – | C[C@@H]1CN(c2ccc(C#N)n3ncc(F)c23)Cc2c3c(nn21)CN(C1CC2(COC2)C1)[C@@H](C)C3 [Example I-135] | IC50 ([1]; HEK-Blue hTLR7 IC50 (µM)): < 0.05 µM; IC50 ([2]; HEK-Blue hTLR8 IC50 (µM)): < 0.1 µM
7 | < 0.05 | < 0.1 | C[C@@H]1CN(c2ccc(C#N)n3ncc(F)c23)Cc2c3c(nn21)CN(CC(=O)N1CCN(C2CC2)CC1)[C@@H](C)C3 [Example I-136, 4-((4R,9S)-8-(2-(4-cyclopropylpiperazin-1-yl)-2-oxoethyl)-4,9-dimethyl-3,4,7,8,9,10-hexahydropyrido[3',4':3,4]pyrazolo[1,5-a]pyrazin-2(1H)-yl)-3-fluoropyrazolo[1,5-a]pyridine-7-carbonitrile] | –
8 | < 0.05 | < 0.1 | C[C@@H]1CN(c2ccc(C#N)n3ncc(F)c23)Cc2c3c(nn21)CN(Cc1cn[nH]c1)[C@@H](C)C3 [Example I-137, 4-((4R,9S)-8-((1H-pyrazol-4-yl)methyl)-4,9-dimethyl-3,4,7,8,9,10-hexahydropyrido [3',4':3,4]pyrazolo[1,5-a]pyrazin-2(1H)-yl)-3-fluoropyrazolo[1,5-a]pyridine-7-carbonitrile] | –
9 | – | – | C[C@@H]1CN(c2ccc(C#N)n3ncc(F)c23)Cc2c3c(nn21)CN(CC(=O)N1CCC1)[C@@H](C)C3 [Example I-138, 4-((4R,9S)-8-(2-(azetidin-1-yl)-2-oxoethyl)-4,9-dimethyl-3,4,7,8,9,10-hexahydropyrido [3',4':3,4]pyrazolo[1,5-a]pyrazin-2(1H)-yl)-3-fluoropyrazolo[1,5-a]pyridine-7-carbonitrile] | IC50 ([1]; read-out: HEK-Blue hTLR7 IC50): < 0.05 µM; IC50 ([2]; read-out: HEK-Blue hTLR8 IC50): > 0.1 µM
10 | < 0.05 | > 0.1 | C[C@@H]1CN(c2ccc(C#N)n3ncc(F)c23)Cc2c3c(nn21)CN(CC(=O)N1CCOCC1)[C@@H](C)C3 [Example I-139, 4-((4R,9S)-4,9-dimethyl-8-(2-morpholino-2-oxoethyl)-3,4,7,8,9,10-hexahydropyrido [3',4':3,4]pyrazolo[1,5-a]pyrazin-2(1H)-yl)-3-fluoropyrazolo[1,5-a]pyridine-7-carbonitrile] | –
11 | < 0.05 | > 0.1 | C[C@@H]1CN(c2ccc(C#N)n3ncc(F)c23)Cc2c3c(nn21)CN(CC(=O)N1CC(F)(F)C1)[C@@H](C)C3 [Example I-140, 4-((4R,9S)-8-(2-(3,3-difluoroazetidin-1-yl)-2-oxoethyl)-4,9-dimethyl-3,4,7,8,9,10-hexahydropyrido[3',4':3,4]pyrazolo[1,5-a]pyrazin-2(1H)-yl)-3-fluoropyrazolo[1,5-a]pyridine-7-carbonitrile] | –
12 | > 0.05 | > 0.1 | C[C@@H]1CN(c2ccc(C#N)c3ncccc23)Cc2c3c(nn21)CN(CC(N)=O)[C@@H](C)C3 [Example I-141, 2-((4R,9S)-2-(8-cyanoquinolin-5-yl)-4,9-dimethyl-1,2,3,4,9,10-hexahydropyrido [3',4':3,4]pyrazolo[1,5-a]pyrazin-8(7H)-yl)acetamide] | –
13 | < 0.05 | > 0.1 | C[C@@H]1CN(c2ccc(C#N)n3ncc(F)c23)Cc2c3c(nn21)CN(C1CCOC1)[C@@H](C)C3 (stereo partly drawn) [Example I-142, 4-((4R,9S)-4,9-dimethyl-8-(tetrahydrofuran-3-yl)-3,4,7,8,9,10-hexahydropyrido [3',4':3,4]pyrazolo[1,5-a]pyrazin-2(1H)-yl)-3-fluoropyrazolo[1,5-a]pyridine-7-carbonitrile] | –
14 | < 0.05 | > 0.1 | C[C@@H]1CN(c2ccc(C#N)n3ncc(F)c23)Cc2c3c(nn21)CN(CC(=O)N1C[C@H](C)N[C@@H](C)C1)[C@@H](C)C3 [Example I-144, 4-((4R,9S)-8-(2-((3S,5S)-3,5-dimethylpiperazin-1-yl)-2-oxoethyl)-4,9-dimethyl-3,4,7,8,9,10-hexahydropyrido[3',4':3,4]pyrazolo[1,5-a]pyrazin-2(1H)-yl)-3-fluoropyrazolo[1,5-a]pyridine-7-carbonitrile] | –

Row | Structure (SMILES) | IC50 [1, 3] [µM] | IC50 [2, 4] [µM] | further results
15 | C[C@@H]1CN(c2ccc(C#N)n3ncc(F)c23)Cc2c3c(nn21)CN(S(=O)(=O)CCN(C)C)[C@@H](C)C3 [Example I-118] | < 0.05 | < 0.1 | –
16 | C[C@@H]1CN(c2ccc(C#N)c3ncccc23)Cc2c3c(nn21)CN[C@@H](C)C3 [Example I-132, 5-((4R,9S)-4,9-dimethyl-3,4,7,8,9,10-hexahydropyrido[3',4':3,4]pyrazolo[1,5-a]pyrazin-2(1H)-yl)quinoline-8-carbonitrile] | < 0.05 | < 0.1 | –
